Assay results reported in paper PMC10699557, “A recombinant approach for stapled peptide discovery yields inhibitors of the RAD51 recombinase” (Chemical Science, 2023).

Assay: Two-component Cys-Cys stapling with divinyltriazine (DVT): double thia-Michael addition on recombinant StrepII-GB1-peptide-His8 fusions, stepwise linker addition (pseudo-dilution), DTT quench
Details: the molecule shown is the open-chain precursor, PBS + 200 mM imidazole (2 mM linker stock in DMSO added stepwise), 0.02 mM, scale: 1 = stapled product confirmed by ESI-MS as

StrepII-GB1-...GSDP-ACGFSTASGKKLNVSCEALQKAVKLFSDIENIS-DPGS...-His8 (free Cys thiols, + DVT)
ring closure, product found (54-membered ring): 1

StrepII-GB1-...GSDP-SCFSTASGKKLNVSCEALQKAVKLFSDIENIS-DPGS...-His8 (free Cys thiols, + DVT)
ring closure, product found (51-membered ring): 1

StrepII-GB1-...GSDP-SSACSGFSTASGKKLNVSTEACQKAVKLFSDIENIS-DPGS...-His8 (free Cys thiols, + DVT)
ring closure, product found (66-membered ring): 1

StrepII-GB1-...GSDP-VNSSAFSGFSTASGKKLNVSCEALQKACKLFSDIENIS-DPGS...-His8 (free Cys thiols, + DVT)
ring closure, product found (33-membered ring): 1

StrepII-GB1-...GSDP-VNSSAFSGFSTASGKKLNVSTEALQKACKLFSDIECIS-DPGS...-His8 (free Cys thiols, + DVT)
ring closure, product found (36-membered ring): 1
